Assay results as given in patent publication US11980630B2 (priority 2017, dated 2024).
Entries after “also recorded” stand apart in the source; their conditions may differ. Read-outs that look alike come from different tables or passages of the source.

Legend:
[1] = system: EBOV; conditions: cited from earlier work
[2] = system: MARV; conditions: cited from earlier work
[3] = target: SARS-CoV nsp14 (N7 MTase) (Severe acute respiratory syndrome coronavirus, UniProt P0C6X7); type: biochemical
[4] = target: T1, Zika virus NS5 MTase (Zika virus, UniProt A0A024B7W1); assay: biochemical
T1 construct: Zika virus NS5 MTase: 500 nM
T1 sequence (A0A024B7W1 2521-2785 limits assumed): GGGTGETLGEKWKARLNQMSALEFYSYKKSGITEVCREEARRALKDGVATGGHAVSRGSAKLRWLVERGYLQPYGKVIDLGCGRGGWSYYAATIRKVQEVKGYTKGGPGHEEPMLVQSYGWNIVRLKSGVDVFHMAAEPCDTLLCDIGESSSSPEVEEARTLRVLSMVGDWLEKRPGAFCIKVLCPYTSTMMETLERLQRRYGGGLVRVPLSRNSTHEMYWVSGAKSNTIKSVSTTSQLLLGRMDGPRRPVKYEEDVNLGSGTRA

[5] = target: T2, Dengue virus NS5 MTase (Dengue virus type 2, UniProt P29990); assay: biochemical
T2 construct: Dengue virus NS5 MTase: 500 nM
T2 sequence (P29990 2493-2755 limits assumed): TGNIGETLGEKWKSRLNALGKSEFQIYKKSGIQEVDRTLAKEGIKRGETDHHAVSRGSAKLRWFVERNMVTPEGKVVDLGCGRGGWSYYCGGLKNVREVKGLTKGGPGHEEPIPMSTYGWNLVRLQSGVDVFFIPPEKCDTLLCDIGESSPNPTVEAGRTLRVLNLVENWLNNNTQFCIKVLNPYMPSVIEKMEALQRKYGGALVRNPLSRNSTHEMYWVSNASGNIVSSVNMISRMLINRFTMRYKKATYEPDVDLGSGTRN

[6] = target: T3, hMPV MTase (Human metapneumovirus, UniProt Q6WB93); assay: biochemical; type: biochemical
T3 construct: hMPV MTase: 1 μM
T3 sequence (Q6WB93 1599-2005 limits assumed): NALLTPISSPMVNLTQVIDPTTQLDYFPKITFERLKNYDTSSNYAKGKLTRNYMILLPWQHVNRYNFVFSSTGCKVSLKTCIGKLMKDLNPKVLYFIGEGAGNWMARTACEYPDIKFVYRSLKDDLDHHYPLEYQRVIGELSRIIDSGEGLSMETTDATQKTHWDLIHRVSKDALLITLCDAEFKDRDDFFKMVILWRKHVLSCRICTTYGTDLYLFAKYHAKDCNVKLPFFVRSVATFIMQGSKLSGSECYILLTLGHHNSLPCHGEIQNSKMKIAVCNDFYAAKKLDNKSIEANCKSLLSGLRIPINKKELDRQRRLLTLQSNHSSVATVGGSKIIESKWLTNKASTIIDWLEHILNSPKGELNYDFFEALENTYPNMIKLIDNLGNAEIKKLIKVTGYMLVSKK

[7] = target: human N7 MTase (hN7 or RNMT) (Homo sapiens, UniProt O43148); assay: biochemical
human N7 MTase (hN7 or RNMT), sequence (O43148 whole entry): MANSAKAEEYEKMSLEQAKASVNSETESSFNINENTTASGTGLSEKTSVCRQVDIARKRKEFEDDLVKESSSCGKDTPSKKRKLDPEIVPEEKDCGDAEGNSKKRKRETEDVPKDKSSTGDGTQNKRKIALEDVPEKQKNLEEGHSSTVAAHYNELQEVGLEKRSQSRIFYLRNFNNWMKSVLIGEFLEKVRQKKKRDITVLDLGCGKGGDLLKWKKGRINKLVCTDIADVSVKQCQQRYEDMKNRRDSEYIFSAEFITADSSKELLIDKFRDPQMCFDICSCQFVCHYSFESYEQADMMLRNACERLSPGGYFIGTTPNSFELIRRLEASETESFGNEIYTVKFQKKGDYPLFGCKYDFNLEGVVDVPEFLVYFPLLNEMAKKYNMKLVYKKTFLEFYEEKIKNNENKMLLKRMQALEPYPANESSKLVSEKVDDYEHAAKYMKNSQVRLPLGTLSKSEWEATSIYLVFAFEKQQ

[8] = target: T4, RSV MTase (Human respiratory syncytial virus A, UniProt P28887); assay: biochemical; type: biochemical
T4 construct: RSV MTase: 4 μM
T4 sequence (P28887 1820-2008 limits assumed): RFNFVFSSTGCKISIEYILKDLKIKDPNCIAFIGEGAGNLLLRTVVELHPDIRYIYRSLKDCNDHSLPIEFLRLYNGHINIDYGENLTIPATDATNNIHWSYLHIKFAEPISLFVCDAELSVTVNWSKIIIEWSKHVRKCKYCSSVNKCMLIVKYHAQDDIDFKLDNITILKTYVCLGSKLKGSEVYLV

[9] = target: MERS polymerase complex (12HC/7HC8) (Middle East respiratory syndrome-related coronavirus, UniProt K9N7C7); type: biochemical
MERS polymerase complex (12HC/7HC8), sequence (K9N7C7 4378-5310 limits assumed): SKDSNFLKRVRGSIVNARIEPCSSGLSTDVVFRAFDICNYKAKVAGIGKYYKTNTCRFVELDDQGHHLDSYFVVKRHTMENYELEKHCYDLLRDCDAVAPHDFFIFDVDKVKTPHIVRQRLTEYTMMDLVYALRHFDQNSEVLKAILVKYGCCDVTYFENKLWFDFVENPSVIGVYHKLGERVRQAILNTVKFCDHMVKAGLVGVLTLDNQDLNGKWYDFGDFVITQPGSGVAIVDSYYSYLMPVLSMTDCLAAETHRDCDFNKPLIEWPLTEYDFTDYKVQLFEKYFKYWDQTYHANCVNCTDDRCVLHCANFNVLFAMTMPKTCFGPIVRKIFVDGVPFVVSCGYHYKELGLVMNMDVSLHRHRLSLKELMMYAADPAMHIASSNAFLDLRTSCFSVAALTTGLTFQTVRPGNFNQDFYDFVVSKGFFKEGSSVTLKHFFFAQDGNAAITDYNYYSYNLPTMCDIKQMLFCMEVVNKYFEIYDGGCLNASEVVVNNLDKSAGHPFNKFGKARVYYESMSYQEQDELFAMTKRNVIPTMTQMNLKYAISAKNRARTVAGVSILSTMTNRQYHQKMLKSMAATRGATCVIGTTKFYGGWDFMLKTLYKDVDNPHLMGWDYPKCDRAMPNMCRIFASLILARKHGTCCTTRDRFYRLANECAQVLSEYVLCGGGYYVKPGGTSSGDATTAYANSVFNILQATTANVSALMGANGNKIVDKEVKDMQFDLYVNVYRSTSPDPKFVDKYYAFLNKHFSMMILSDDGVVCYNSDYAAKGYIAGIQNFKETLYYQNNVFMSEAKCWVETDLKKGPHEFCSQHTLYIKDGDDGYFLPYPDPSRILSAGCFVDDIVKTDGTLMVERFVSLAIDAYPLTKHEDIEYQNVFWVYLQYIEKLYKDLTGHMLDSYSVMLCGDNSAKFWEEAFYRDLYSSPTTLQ
MERS polymerase complex (12HC/7HC8), sequence (K9N7C7 3846-3928 partner limits assumed): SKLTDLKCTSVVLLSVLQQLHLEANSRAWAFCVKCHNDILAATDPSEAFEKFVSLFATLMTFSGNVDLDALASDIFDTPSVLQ
MERS polymerase complex (12HC/7HC8), sequence (K9N7C7 3929-4127 partner limits assumed): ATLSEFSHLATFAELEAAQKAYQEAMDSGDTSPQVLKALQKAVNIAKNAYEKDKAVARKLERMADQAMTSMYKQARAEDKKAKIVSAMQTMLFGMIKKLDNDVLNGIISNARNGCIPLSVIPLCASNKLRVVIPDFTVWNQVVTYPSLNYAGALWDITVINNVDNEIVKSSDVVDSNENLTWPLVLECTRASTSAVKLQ

[10] = target: SARS polymerase complex (12HC/7HC8) (Severe acute respiratory syndrome coronavirus, UniProt P0C6X7); type: biochemical
[11] = system: EBOV (Makona); assay: microbe, parasite or virus in culture; type: cell-based, Ebola virus; conditions: for EC50: Zaire ebolavirus, HeLa
[12] = system: SUDV (Gulu); assay: microbe, parasite or virus in culture; type: cell-based, Sudan virus; conditions: for EC50: Sudan ebolavirus, HeLa
[13] = system: MARV (Ci67); assay: organism not typed; type: cell-based, Marburg virus; conditions: for EC50: HeLa
[14] = system: recombinant reporter EBOV; assay: microbe, parasite or virus in culture; type: cell-based, Ebola virus; conditions: for EC50: Zaire ebolavirus
[15] = system: Lassa Virus; assay: microbe, parasite or virus in culture; type: cell-based; conditions: Mammarenavirus lassaense, Huh-7, read-out: Lassa Virus EC50
[16] = system: Rift Valley Fever; assay: microbe, parasite or virus in culture; type: cell-based; conditions: Huh-7, read-out: Rift Valley Fever EC50
[17] = system: HeLa cells; conditions: human
[18] = system: Huh7 cells; conditions: human
[19] = in vitro; conditions: human
[20] = read-out: EBOV EC50 (50% inhibition of virus-induced CPE)
[21] = read-out: SUDV EC50 (50% inhibition of virus-induced CPE)
[22] = read-out: MARV EC50 (50% inhibition of virus-induced CPE)
[23] = Huh-7, read-out: EC50 against EBOV in Huh7 cells

| Compound | Antiviral activity against EBOV [11] | EC50 [11, 20] [µM] | Antiviral activity against SUDV [12] | EC50 [12, 21] [µM] | Antiviral activity against MARV [13] | EC50 [13, 22] [µM] | Antiviral activity against recombinant reporter EBOV [14] | EC50 ([14]; Huh-7, read-out: EBOV EC50) [µM] | EC50 [14, 23] [µM] | EC50 [15] [µM] | EC50 [16] [µM] | CC50 [17] [µM] | CC50 [18] [µM] | also measured |
| --- | --- | --- | --- | --- | --- | --- | --- | --- | --- | --- | --- | --- | --- | --- |
| CCC(CC)COC(=O)[C@H](C)N[P@](=O)(OC[C@H]1O[C@@](C#N)(c2ccc3c(N)ncnn23)[C@H](O)[C@@H]1O)Oc1ccccc1 [GS-5734] |  |  |  |  |  |  |  |  |  |  |  |  |  | Activity against EBOV (literature, words) [1]: very potent activity; Activity against MARV (literature, words) [2]: very potent activity |
| COc1nc(N)ncc1-c1cn(COCCOP(=O)(O)OP(=O)(O)OP(=O)(O)O)cn1 [Compound 2MR04] |  |  |  |  |  |  |  |  |  |  |  |  |  | Inhibition of SARS-nsp14 MTase activity [3]: inhibits; Inhibition of Zika virus MTase activity [4]: inhibits; IC50 ([4]; IC50 Zika NS5-MTase): ~22 µM; IC50 ([4]; IC50 in another testing (FIG. 15, effect on Zika Virus)): ~17 µM; IC50 [5]: ~22 µM; Inhibition of Dengue virus NS5 MTase activity [5]: inhibits; IC50 [6]: ~31 µM; Inhibition of hMPV MTase activity [6]: strongly inhibiting; also recorded: inhibits; IC50 [7]: ~49 µM; Inhibition of RNMT (RNA Guanine-7 Methyltransferase) [7]: not inhibited; IC50 [8]: ~18 µM; Inhibition of RSV MTase activity [8]: strongly inhibiting; Reduction of product / oligonucleotide synthesis by MERS polymerase [9]: as effective as the 3′dGTP inhibitor; also recorded: as effective, not more effective, in reduction of oligonucleotide synthesis; Reduction of product / oligonucleotide synthesis by SARS polymerase [10]: comparable to the other inhibitors |
| COc1nc(N)ncc1-c1cn(COCCO)cn1 [Compound 1] | no detectable activity | > 100 | no detectable activity | > 100 | no detectable activity | > 100 | exhibited antiviral activity | 2.2 ± 0.3 | 2.2 ± 0.3 | > 50 | > 50 | > 100 | > 50 |  |
| CCC(CC)OC(=O)[C@@H](C)N[P@](=O)(OCCOCn1cnc(-c2cnc(N)nc2OC)c1)Oc1ccccc1 [Compound 3] | Activity against all three viruses was observed | 29 ± 9 | best activity against SUDV | 7 ± 2 | Activity against all three viruses was observed | 62 ± 13 | active against EBOV at a similar concentration; also recorded: exhibited antiviral activity | 27.2 ± 2.2 | 27.2 ± 2.2 | > 50 | > 50 | > 100 | > 50 | EC50 ([11]; read-out: EC50 EBOV in Hela cells (FIGS. 3-5)): 29.1 µM; EC50 ([11]; read-out: EC50 against EBOV in HeLa cells): 29 ± 9 µM; EC50 ([12]; read-out: EC50 SUDV in Hela cells (FIGS. 3-5)): 6.85 µM; EC50 ([12]; read-out: EC50 against SUDV in HeLa cells): 7 ± 2 µM; EC50 ([13]; read-out: EC50 MARV in Hela cells (FIGS. 3-5)): 62.3 µM; Potency of McGuigan prodrug relative to compound 1 [14]: ~10 fold |
| COc1nc(N)ncc1-c1cn(COCCOC(C)=O)cn1 [Compound 2] |  | 44 ± 13 |  | 20 ± 10 |  | 70 ± 27 |  |  |  |  |  | > 100 |  | CC50 [19]: > 100 µM |
